Target: T1, Protein mono-ADP-ribosyltransferase TIPARP (Homo sapiens, UniProt Q7Z3E1)
T1 sequence (Q7Z3E1 whole entry): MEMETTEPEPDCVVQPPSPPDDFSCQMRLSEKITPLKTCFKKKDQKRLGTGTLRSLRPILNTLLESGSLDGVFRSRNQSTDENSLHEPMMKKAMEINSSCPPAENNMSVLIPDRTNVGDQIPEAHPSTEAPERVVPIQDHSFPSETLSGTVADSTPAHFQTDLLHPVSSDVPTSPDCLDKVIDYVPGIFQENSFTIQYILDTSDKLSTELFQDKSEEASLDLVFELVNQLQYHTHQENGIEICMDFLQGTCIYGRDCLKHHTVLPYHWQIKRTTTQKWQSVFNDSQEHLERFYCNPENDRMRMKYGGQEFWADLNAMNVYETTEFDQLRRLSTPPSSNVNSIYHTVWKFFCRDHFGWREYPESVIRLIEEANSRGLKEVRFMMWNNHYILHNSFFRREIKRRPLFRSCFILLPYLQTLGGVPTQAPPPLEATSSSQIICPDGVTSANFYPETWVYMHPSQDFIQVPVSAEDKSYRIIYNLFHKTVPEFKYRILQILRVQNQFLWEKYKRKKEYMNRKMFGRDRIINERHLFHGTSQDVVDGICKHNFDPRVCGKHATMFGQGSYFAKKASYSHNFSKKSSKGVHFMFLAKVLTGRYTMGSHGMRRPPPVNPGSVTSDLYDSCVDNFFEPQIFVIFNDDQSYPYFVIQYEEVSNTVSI
Experiment: Enzymatic Biochemical Assay of PARP
Description: The specific scheme was as follows: the 1× histone mixture was added to a 96-well plate at 50 μL per well, and the plate was incubated overnight at 4° C. The next day, after the plate was washed with PBST, 200 μL of blocking buffer per well was added, and the plate was incubated for 90 min. After the plate was washed with PBST again, 5 μL of inhibitor, 20 μL of 1×PARP buffer and 25 μL of […] were added to each well, and the plate was incubated at room temperature for 30 min. After the plate was washed with PBST, 100 μL of Elisa ECL substrate A and B mixture was added to each well, chemiluminescence value was immediately read using a plate reader, and IC50 values were calculated.

IC50: < 10 nM
SMILES: C[C@@H](COCc1nn2c(c1Cl)CN(c1cnc(C(F)(F)F)cn1)CC2)Nc1cn[nH]c(=O)c1C(F)(F)F [US20240158406, Compound 14]

From BindingDB's records for patent US20240158406 (Chengdu Baiyu Pharmaceutical Co., 2024)
